Reference: PubChem BioAssay (NCI)
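Five compound concentrations were applied to cells in 96-well plates for 48 hours; endpoints were derived by simple linear interpolation of the resulting dose-response curve. TGI: total growth inhibition.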

Key:
Test in all cases: DTP human tumour cell line panel, 48 h
[1] = system: A549 NSCLC
[2] = system: SNB-75 CNS
[3] = system: SK-MEL-5 melanoma
[4] = system: EKVX NSCLC
[5] = system: SK-OV-3 ovarian
[6] = system: UACC-257 melanoma
[7] = system: NCI-H460 lung
[8] = system: NCI-H226 lung
[9] = system: HOP-92 NSCLC
[10] = system: KM12 colon
[11] = system: 786-0 renal
[12] = system: K-562 leukemia
[13] = system: IGROV1 ovarian
[14] = system: NCI-H23 lung
[15] = system: HT29 colon
[16] = system: BT-549 breast

Measured: TGI

CC(C)CC(NC(=O)C(C)(CI)Cc1ccccc1)C(=O)Nc1ccccc1 (stereo not given)
> 100 µM: [1] | [2] | [3] | [4] | [5] | [6] | [7] | [8] | [9] | [10] | [11] | [12] | [13] | [14]

N#CC12C(=O)NC(=O)C1(C#N)C1C=CC2CC1 (stereo not given)
> 100 µM: [1] | [2] | [3] | [4] | [5] | [6] | [8] | [15] | [10] | [11] | [14] | [16]

C=CCN(c1cc(OC)c(NC(C)=O)cc1[N+](=O)[O-])S(C)(=O)=O
> 100 µM: [1] | [2] | [3] | [4] | [5] | [6] | [7] | [8] | [10] | [11] | [12] | [13] | [14] | [16]

FC1(F)[Se]C2C3CCC(C3)C2C1(F)F (stereo not given)
> 100 µM: [1] | [2] | [3] | [4] | [5] | [7] | [8] | [10] | [11] | [13]

CC(=O)OCCn1cnc2c(NCC=C(C)C)ncnc21
> 100 µM: [1] | [2] | [3] | [4] | [5] | [6] | [7] | [8] | [15] | [9] | [10] | [11] | [12] | [13] | [14]

CC(=O)Nc1ccc2c3c(cc(O)c2c1)N(C(=O)CCCC(=O)N1CC(CCl)c2c1cc(O)c1cc(NC(C)=O)ccc21)CC3CCl (stereo not given)
0.306 µM: [16]
> 24.6 µM: [5]
0.195 µM: [11]
0.0925 µM: [4]
> 100 µM: [7] | [12] | [13]
11.6 µM: [10]
< 0.0262 µM: [2]
0.0325 µM: [14]

COc1ccccc1Nc1nc2c([nH]1)c(=O)n(C)c(=O)n2C
> 10 µM: [1] | [2] | [3] | [4] | [5] | [6] | [15] | [9] | [10] | [11] | [12] | [13] | [14]

CC1CC(N)=C(C#N)C1(C#N)C#N (stereo not given)
> 100 µM: [1] | [2] | [4] | [5] | [6] | [8] | [15] | [9] | [10] | [11] | [12] | [13] | [14]

O=C1C2C(C(=O)N1c1ccccc1)C1(c3ccccc3)CCC2(C(=O)c2ccccc2)O1 (stereo not given)
> 10 µM: [1] | [3] | [4] | [5] | [6] | [7] | [15] | [10] | [11] | [13] | [14] | [16]

CSC1=N/C(=C\c2ccc(Cl)cc2)C(=O)N1CN1CCCCC1
> 100 µM: [1] | [2] | [3] | [5] | [8] | [15] | [10] | [11] | [12] | [14]
53.3 µM: [4]
93.2 µM: [13]

O=C(Nc1ccc(C(F)(F)F)cc1)NC(F)(F)F
> 100 µM: [1] | [2] | [3] | [4] | [5] | [6] | [15] | [11] | [12] | [13] | [14] | [16]

O=c1oc2ccc3ccccc3c2cc1-c1nnc(Nc2ccccc2)s1
> 100 µM: [4] | [6] | [15] | [10] | [12] | [16]
42.3 µM: [7]
59 µM: [1]
31.6 µM: [11]
98.3 µM: [14]

COc1cc(C2C(Cl)C(=O)N2NC(=O)Cc2ccccc2)cc(Br)c1O (stereo not given)
> 100 µM: [1] | [2] | [3] | [4] | [5] | [6] | [7] | [8] | [15] | [10] | [11] | [12] | [13] | [14]

CN=C1Nc2ccccc2C(=O)N2CSCC12 (stereo not given)
> 100 µM: [1] | [2] | [3] | [4] | [5] | [6] | [7] | [8] | [15] | [10] | [11] | [12] | [13] | [16]
